Measurements published in ChEMBL document CHEMBL1221403, “Topsentinols, 24-isopropyl steroids from the marine sponge Topsentia sp” (J Nat Prod, 2010).
Calls of active or inactive are those of the source. No cut-off for these calls is given here.

Experiments:
Beta-secretase 1 = Beta-secretase 1 (Homo sapiens, UniProt P56817); test: Inhibition of BACE1-mediated cleavage of amyloid precursor protein after 16 hrs by spectrophotometry
[1] = Inhibition of chymotrypsin in absence of Triton X-100
[2] = Inhibition of chymotrypsin in presence of 0.01% Triton X-100

Sequence of Beta-secretase 1 (P56817 whole entry): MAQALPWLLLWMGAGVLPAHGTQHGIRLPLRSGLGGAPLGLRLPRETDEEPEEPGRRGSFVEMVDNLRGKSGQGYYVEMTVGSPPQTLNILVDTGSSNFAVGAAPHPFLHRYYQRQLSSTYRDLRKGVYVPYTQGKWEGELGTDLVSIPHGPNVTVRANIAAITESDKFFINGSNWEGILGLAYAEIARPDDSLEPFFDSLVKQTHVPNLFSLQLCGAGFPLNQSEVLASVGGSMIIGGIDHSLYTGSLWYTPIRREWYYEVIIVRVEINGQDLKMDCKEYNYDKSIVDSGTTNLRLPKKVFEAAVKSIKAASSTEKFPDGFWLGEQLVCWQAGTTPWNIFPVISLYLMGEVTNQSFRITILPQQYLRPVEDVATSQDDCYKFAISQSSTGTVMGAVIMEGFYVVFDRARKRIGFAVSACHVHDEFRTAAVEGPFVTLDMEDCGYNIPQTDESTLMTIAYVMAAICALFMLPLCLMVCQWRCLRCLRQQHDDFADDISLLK

Structure (SMILES) | inhibition (Beta-secretase 1) | IC50 (Beta-secretase 1) | IC50 [1] | IC50 [2]
C=C(C)C(/C=C\[C@@H](C)[C@H]1CC[C@H]2[C@@H]3C[C@H](O)[C@H]4C[C@H](O)[C@@H](O)C[C@]4(C)[C@H]3CC[C@]12C)C(C)C (stereo partly drawn) | inactive |  |  | 
CC(C)C(/C=C/[C@@H](C)[C@H]1CC[C@H]2[C@@H]3CC=C4C[C@@H](O)CC[C@]4(C)[C@H]3CC[C@]12C)C(C)C | inactive |  |  | 
CC(C)C(/C=C/[C@@H](C)[C@H]1CC[C@H]2[C@@H]3C[C@H](O)[C@H]4C[C@H](O)[C@@H](O)C[C@]4(C)[C@H]3CC[C@]12C)C(C)C | inactive |  |  | 
CC(C)C(/C=C\[C@@H](C)[C@H]1CC[C@H]2[C@@H]3C[C@H](O)[C@H]4C[C@H](O)[C@@H](O)C[C@]4(C)[C@H]3CC[C@]12C)C(C)C | inactive |  |  | 
CC(C)C(/C=C\[C@@H](C)[C@H]1CC[C@H]2[C@@H]3C[C@H](OS(=O)(=O)O)[C@H]4C[C@H](OS(=O)(=O)O)[C@@H](OS(=O)(=O)O)C[C@]4(C)[C@H]3CC[C@]12C)C(C)C [TOPSENTINOL K TRISULFATE] | Dose-dependent effect | 1200 nM | 2700 nM | 34600 nM
